Patent publication US12252524B2, “GIP/GLP1 co-agonist compounds” (Eli Lilly and Company, priority 2018, dated 2025)
Numbered stars: 1 amine (or outer) side, 2 acyl side, 3 side chain; on linkers, the order of the positions; unused ones are H or OH. Square brackets hold non-standard residues; d marks the D form. Side chains are listed from the residue outwards. Peptide text beside a SMILES is read from it. * marks the point of attachment. C20 diacid = O=C(O)CCCCCCCCCCCCCCCCCCC(=O)*; αMePhe(2-F) = C[C@](N)(Cc1ccccc1F)C(=O)O; γGlu = O=C(O)[C@H](CCC(=O)[*:2])N[*:1]; αMeF = C[C@](N)(Cc1ccccc1)C(=O)O; αMeL = CC(C)C[C@](C)(N)C(=O)O; Dab = NCC[C@H](N)C(=O)O; AEEA = NCCOCCOCC(=O)O; Aib = CC(C)(N)C(=O)O

Experiments:
[1] = molecular target: human GLP-1 receptor (GLP-1R) (Homo sapiens, UniProt P43220); test: cAMP pharmacological functional assay in presence of casein, hGLP-1R; assay type: cell-based; settings: HEK293 cells expressing hGLP-1R, 0.1% Casein, geometric mean; read-out: hGLP1R cAMP Rel EC50 nM (SEM, n)
[2] = molecular target: T1, gastric inhibitory peptide receptor (GIPR) (Homo sapiens, UniProt P48546); test: cAMP pharmacological functional assay in presence of casein, hGIPR; assay type: cell-based; settings: HEK293 cells expressing hGIPR, 0.1% Casein, geometric mean; read-out: hGIPR cAMP Rel EC50 nM (SEM, n)
T1 sequence (P48546 22-466): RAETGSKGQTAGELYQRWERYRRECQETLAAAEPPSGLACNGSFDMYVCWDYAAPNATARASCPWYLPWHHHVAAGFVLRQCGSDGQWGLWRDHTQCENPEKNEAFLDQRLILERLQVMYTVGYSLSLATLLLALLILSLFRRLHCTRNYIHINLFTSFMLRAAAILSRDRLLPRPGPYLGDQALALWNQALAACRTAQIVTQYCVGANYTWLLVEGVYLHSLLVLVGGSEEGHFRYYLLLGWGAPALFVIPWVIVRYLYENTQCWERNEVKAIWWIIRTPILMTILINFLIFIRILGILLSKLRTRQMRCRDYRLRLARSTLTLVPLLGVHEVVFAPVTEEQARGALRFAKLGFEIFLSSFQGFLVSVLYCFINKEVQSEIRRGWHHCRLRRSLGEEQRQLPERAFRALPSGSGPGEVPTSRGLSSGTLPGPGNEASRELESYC

Sequence of human GLP-1 receptor (GLP-1R) (P43220 24-463): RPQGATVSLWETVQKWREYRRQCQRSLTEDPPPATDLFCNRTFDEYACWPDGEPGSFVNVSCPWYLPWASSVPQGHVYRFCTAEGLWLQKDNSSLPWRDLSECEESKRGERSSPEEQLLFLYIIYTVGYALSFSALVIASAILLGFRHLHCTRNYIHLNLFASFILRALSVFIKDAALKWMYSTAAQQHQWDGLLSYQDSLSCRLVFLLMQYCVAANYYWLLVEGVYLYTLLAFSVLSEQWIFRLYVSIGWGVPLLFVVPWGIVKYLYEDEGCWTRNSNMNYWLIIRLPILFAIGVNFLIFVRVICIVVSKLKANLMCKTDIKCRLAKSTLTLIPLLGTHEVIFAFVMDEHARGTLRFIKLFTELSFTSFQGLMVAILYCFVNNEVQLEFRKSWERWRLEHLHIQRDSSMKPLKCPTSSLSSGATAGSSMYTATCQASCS

Structure (SMILES)	EC50 [1]	EC50 [2]
CC[C@H](C)[C@H](NC(=O)[C@H](CCCCN)NC(=O)[C@H](CC(=O)O)NC(=O)[C@H](CC(C)C)NC(=O)[C@H](CC(C)C)NC(=O)[C@@H](NC(=O)[C@H](CO)NC(=O)[C@H](Cc1ccc(O)cc1)NC(=O)[C@H](CC(=O)O)NC(=O)[C@H](CO)NC(=O)[C@@H](NC(=O)[C@H](Cc1ccccc1)NC(=O)[C@@H](NC(=O)CNC(=O)[C@H](CCC(=O)O)NC(=O)C(C)(C)NC(=O)[C@@H](N)Cc1ccc(O)cc1)[C@@H](C)O)[C@@H](C)O)[C@@H](C)CC)C(=O)N[C@@H](C)C(=O)N[C@@H](CCC(N)=O)C(=O)NC(C)(C)C(=O)N[C@@H](C)C(=O)N[C@@H](Cc1ccccc1)C(=O)N[C@H](C(=O)N[C@@H](CCC(=O)O)C(=O)N[C@@H](Cc1ccc(O)cc1)C(=O)N[C@@H](CC(C)C)C(=O)N[C@H](C(=O)N[C@@H](CCCCNC(=O)COCCOCCNC(=O)COCCOCCNC(=O)CC[C@H](NC(=O)CCCCCCCCCCCCCCCCCCC(=O)O)C(=O)O)C(=O)NCC(=O)NCC(N)=O)[C@@H](C)CC)[C@@H](C)CC [Example 73] (H-Y[Aib]EGTFTSDYSILLDKIAQ[Aib]AFIEYLIK([AEEA-AEEA-γGlu-C20 diacid])GG-NH2)	2.55 nM	0.979 nM
CC[C@H](C)[C@H](NC(=O)[C@H](CC(C)C)NC(=O)[C@H](Cc1ccc(O)cc1)NC(=O)[C@@H](CCC(=O)O)NC(=O)[C@@H](NC(=O)[C@H](Cc1ccccc1)NC(=O)[C@@H](NC(=O)C(C)(C)NC(=O)[C@H](CCC(N)=O)NC(=O)[C@H](C)NC(=O)[C@H](CCCCNC(=O)COCCOCCNC(=O)COCCOCCNC(=O)[C@@H](N)CCCCNC(=O)CCCCCCCCCCCCCCCCC(=O)O)NC(=O)[C@H](CCC(=O)O)NC(=O)[C@H](CC(=O)O)NC(=O)[C@H](CC(C)C)NC(=O)C(C)(CC(C)C)NC(=O)[C@@H](NC(=O)[C@H](CO)NC(=O)[C@H](Cc1c[nH]cn1)NC(=O)[C@H](CC(=O)O)NC(=O)[C@H](CO)NC(=O)[C@@H](NC(=O)C(C)(Cc1ccccc1F)NC(=O)[C@@H](NC(=O)CNC(=O)[C@H](CCC(=O)O)NC(=O)C(C)(C)NC(=O)[C@@H](N)Cc1ccc(O)cc1)[C@@H](C)O)[C@@H](C)O)[C@@H](C)CC)[C@@H](C)O)[C@@H](C)CC)C(=O)N[C@@H](CCC(=O)O)C(=O)NCC(=O)NCC(=O)N1CCC[C@H]1C(=O)N[C@@H](CO)C(=O)N[C@@H](CO)C(=O)NCC(=O)N[C@@H](C)C(=O)N1CCC[C@H]1C(=O)N1CCC[C@H]1C(=O)N1CCC[C@H]1C(=O)N[C@@H](CO)C(N)=O (stereo partly drawn) [Example 176]	1.07 nM	0.523 nM
CC[C@H](C)[C@H](NC(=O)[C@H](Cc1ccccc1)NC(=O)[C@H](CCC(=O)O)NC(=O)C(C)(C)NC(=O)[C@H](CCC(N)=O)NC(=O)[C@H](C)NC(=O)[C@H](CCCCNC(=O)COCCOCCNC(=O)COCCOCCNC(=O)CC[C@H](NC(=O)CCCCCCCCCCCCCCCCCCC(=O)O)C(=O)O)NC(=O)[C@H](CCC(=O)O)NC(=O)[C@H](CC(=O)O)NC(=O)[C@H](CC(C)C)NC(=O)[C@](C)(CC(C)C)NC(=O)[C@@H](NC(=O)[C@H](CO)NC(=O)[C@H](Cc1ccc(O)cc1)NC(=O)[C@H](CC(=O)O)NC(=O)[C@H](CO)NC(=O)[C@@H](NC(=O)[C@](C)(Cc1ccccc1F)NC(=O)[C@@H](NC(=O)CNC(=O)[C@H](CCC(=O)O)NC(=O)C(C)(C)NC(=O)[C@@H](N)Cc1ccc(O)cc1)[C@@H](C)O)[C@@H](C)O)[C@@H](C)CC)C(=O)N[C@@H](C)C(=O)N[C@@H](Cc1ccc(O)cc1)C(=O)N[C@@H](CC(C)C)C(=O)N[C@H](C(=O)N[C@@H](CCC(=O)O)C(=O)NCC(=O)NCC(=O)N1CCC[C@H]1C(=O)N[C@@H](CO)C(=O)N[C@@H](CO)C(=O)NCC(=O)N[C@@H](C)C(=O)N1CCC[C@H]1C(=O)N1CCC[C@H]1C(=O)N1CCC[C@H]1C(=O)N[C@@H](CO)C(N)=O)[C@@H](C)CC [Example 148] (H-Y[Aib]EGT[αMePhe(2-F)]TSDYSI[αMeL]LDEK([AEEA-AEEA-γGlu-C20 diacid])AQ[Aib]EFIAYLIEGGPSSGAPPPS-NH2)	0.0626 nM	0.043 nM
CC[C@H](C)[C@H](NC(=O)[C@H](CC(C)C)NC(=O)[C@H](Cc1ccc(O)cc1)NC(=O)[C@@H](CCC(=O)O)NC(=O)[C@@H](NC(=O)[C@H](Cc1ccccc1)NC(=O)[C@@H](NC(=O)C(C)(C)NC(=O)[C@H](CCC(N)=O)NC(=O)[C@H](C)NC(=O)[C@H](CCCCNC(=O)COCCOCCNC(=O)COCCOCCNC(=O)CC[C@H](NC(=O)CCCCCCCCCCCCCCCCCCC(=O)O)C(=O)O)NC(=O)[C@H](CCN)NC(=O)[C@H](CC(=O)O)NC(=O)[C@H](CC(C)C)NC(=O)[C@](C)(CC(C)C)NC(=O)[C@@H](NC(=O)[C@H](CO)NC(=O)[C@H](Cc1c[nH]cn1)NC(=O)[C@H](CC(=O)O)NC(=O)[C@H](CO)NC(=O)[C@@H](NC(=O)[C@](C)(Cc1ccccc1F)NC(=O)[C@@H](NC(=O)CNC(=O)[C@H](CCC(=O)O)NC(=O)C(C)(C)NC(=O)[C@@H](N)Cc1ccc(O)cc1)[C@@H](C)O)[C@@H](C)O)[C@@H](C)CC)[C@@H](C)O)[C@@H](C)CC)C(=O)N[C@@H](CCC(=O)O)C(=O)NCC(=O)NCC(=O)N1CCC[C@H]1C(=O)N[C@@H](CO)C(=O)N[C@@H](CO)C(=O)NCC(=O)N[C@@H](C)C(=O)N1CCC[C@H]1C(=O)N1CCC[C@H]1C(=O)N1CCC[C@H]1C(=O)N[C@@H](CO)C(N)=O [Example 172] (H-Y[Aib]EGT[αMePhe(2-F)]TSDHSI[αMeL]LD[Dab]K([AEEA-AEEA-γGlu-C20 diacid])AQ[Aib]TFI[dE]YLIEGGPSSGAPPPS-NH2; N-terminus assumed)	1.2 nM	1.05 nM
CC[C@H](C)[C@H](NC(=O)[C@H](CC(C)C)NC(=O)[C@H](Cc1ccc(O)cc1)NC(=O)[C@H](CCC(=O)O)NC(=O)[C@@H](NC(=O)[C@H](Cc1ccccc1)NC(=O)[C@H](C)NC(=O)C(C)(C)NC(=O)[C@H](CCC(N)=O)NC(=O)[C@H](C)NC(=O)[C@H](CCCCNC(=O)COCCOCCNC(=O)COCCOCCNC(=O)CC[C@H](NC(=O)CCCCCCCCCCCCCCCCCCC(=O)O)C(=O)O)NC(=O)[C@H](CCC(=O)O)NC(=O)[C@H](CC(=O)O)NC(=O)[C@H](CC(C)C)NC(=O)[C@H](CC(C)C)NC(=O)[C@@H](NC(=O)[C@H](CO)NC(=O)[C@H](Cc1ccc(O)cc1)NC(=O)[C@H](CC(=O)O)NC(=O)[C@H](CO)NC(=O)[C@@H](NC(=O)[C@H](Cc1ccccc1)NC(=O)[C@@H](NC(=O)CNC(=O)[C@H](CCC(=O)O)NC(=O)C(C)(C)NC(=O)[C@@H](N)Cc1ccc(O)cc1)[C@@H](C)O)[C@@H](C)O)[C@@H](C)CC)[C@@H](C)CC)C(=O)N[C@@H](CCC(=O)O)C(=O)NCC(=O)NCC(=O)N1CCC[C@H]1C(=O)N[C@@H](CO)C(=O)N[C@@H](CO)C(=O)NCC(=O)N[C@@H](C)C(=O)N1CCC[C@H]1C(=O)N1CCC[C@H]1C(=O)N1CCC[C@H]1C(=O)N[C@@H](CO)C(N)=O [Example 259] (H-Y[Aib]EGTFTSDYSILLDEK([AEEA-AEEA-γGlu-C20 diacid])AQ[Aib]AFIEYLIEGGPSSGAPPPS-NH2; N-terminus assumed)	0.145 nM	0.257 nM
CC[C@H](C)[C@H](NC(=O)[C@H](CC(C)C)NC(=O)[C@](C)(Cc1ccccc1)NC(=O)[C@@H](CCC(=O)O)NC(=O)[C@@H](NC(=O)[C@H](Cc1ccccc1)NC(=O)[C@@H](NC(=O)C(C)(C)NC(=O)[C@H](CCC(N)=O)NC(=O)[C@H](C)NC(=O)[C@H](CCCCNC(=O)COCCOCCNC(=O)COCCOCCNC(=O)CC[C@H](NC(=O)CCCCCCCCCCCCCCCCCCC(=O)O)C(=O)O)NC(=O)[C@H](CCC(=O)O)NC(=O)[C@H](CC(=O)O)NC(=O)[C@H](CC(C)C)NC(=O)[C@](C)(CC(C)C)NC(=O)[C@@H](NC(=O)[C@H](CO)NC(=O)[C@H](Cc1c[nH]cn1)NC(=O)[C@H](CC(=O)O)NC(=O)[C@H](CO)NC(=O)[C@@H](NC(=O)[C@](C)(Cc1ccccc1F)NC(=O)[C@@H](NC(=O)CNC(=O)[C@H](CCC(=O)O)NC(=O)C(C)(C)NC(=O)[C@@H](N)Cc1ccc(O)cc1)[C@@H](C)O)[C@@H](C)O)[C@@H](C)CC)[C@@H](C)O)[C@@H](C)CC)C(=O)N[C@H](CCC(=O)O)C(=O)NCC(=O)NCC(=O)N1CCC[C@H]1C(=O)N[C@@H](CO)C(=O)N[C@@H](CO)C(=O)NCC(=O)N[C@@H](C)C(=O)N1CCC[C@H]1C(=O)N1CCC[C@H]1C(=O)N1CCC[C@H]1C(=O)N[C@@H](CO)C(N)=O [Example 165] (H-Y[Aib]EGT[αMePhe(2-F)]TSDHSI[αMeL]LDEK([AEEA-AEEA-γGlu-C20 diacid])AQ[Aib]TFI[dE][αMeF]LI[dE]GGPSSGAPPPS-NH2)	5.81 nM	1.04 nM
